The values below come from patent publication US9745317B2, “Heterocyclic compounds and their use as dopamine D1 ligands” (PFIZER INC., priority 2014, dated 2017).

Counter-ions that a name gives are not always drawn.

In the first assay the target is Human D1 Receptor (Homo sapiens (Human), UniProt P21728). Kind of assay: Human D1 receptor binding assay ([^3H]-SCH23390 competition binding). The note with it: over-expressing LTK human cell lines; 0.5 nM [^3H]-SCH23390; 30 min at 37° C.; footnote a = single determination, b = geometric mean of ≧5 determinations; read-out: Human D1 Receptor Binding, Ki (nM); Geometric mean of 2-4 determinations (unless otherwise indicated). The protocol: The affinity of the compounds described herein was determined by competition binding assays similar to those described in Ryman-Rasmussen et al., “Differential activation of adenylate cyclase and receptor internalization by novel dopamine D1 receptor agonists”, Molecular Pharmacology 68(4):1039-1048 (2005).
Human D1 Receptor, sequence (P21728 whole entry): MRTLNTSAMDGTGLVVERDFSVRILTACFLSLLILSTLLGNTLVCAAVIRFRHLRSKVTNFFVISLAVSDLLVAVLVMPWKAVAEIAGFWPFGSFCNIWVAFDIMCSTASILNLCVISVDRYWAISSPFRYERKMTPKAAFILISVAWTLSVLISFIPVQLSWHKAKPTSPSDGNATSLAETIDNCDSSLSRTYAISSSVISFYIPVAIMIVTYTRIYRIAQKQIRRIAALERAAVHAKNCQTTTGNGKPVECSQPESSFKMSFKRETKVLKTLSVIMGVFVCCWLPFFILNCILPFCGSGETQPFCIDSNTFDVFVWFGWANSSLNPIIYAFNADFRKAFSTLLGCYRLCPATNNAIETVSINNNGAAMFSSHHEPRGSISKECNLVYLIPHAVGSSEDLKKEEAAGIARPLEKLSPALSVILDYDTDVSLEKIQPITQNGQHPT
D1 binding assays were performed using over-expressing LTK human cell lines. […] These ligand and tissue concentrations were used in time course studies to determine linearity and equilibrium conditions for binding. Binding was at equilibrium with the specified amount of tissue in 30 minutes at 37° C. […] The pellet was resuspended in assay buffer [50 mM Tris (pH 7.4@ RT) containing 4 mM MgSO4 and 0.5 mM EDTA]. […] Non-specific binding was determined by radioligand binding in the presence of a saturating concentration of (+)-Butaclamol (10 μM), a D1 antagonist. After a 30 minute incubation period at 37° C., assay samples were rapidly filtered through Unifilter-96 GF/B PEI-coated filter plates and rinsed with 50 mM Tris buffer (pH 7.4 at 4° C.). […] The IC50 value (concentration at which 50% inhibition of specific binding occurs) was calculated by linear regression of the concentration-response data in Microsoft Excel. Ki values were calculated according to the Cheng-Prusoff equation: […]
Consider `Cc1cc(Oc2nccc3c2CCO3)ccc1-c1c(C)ncc(=O)n1C` (single isomer, unassigned) [Example 22, (−)-6-[4-(2,3-dihydrofuro[3,2-c]pyridin-4-yloxy)-2-methylphenyl]-1,5-dimethylpyrazin-2(1H)-one], for which the Ki was 202 nM.
For `Cc1cc(Oc2nccc3c2CCO3)ccc1-c1c(C)ncc(=O)n1C` (single isomer, unassigned) [Example 23, (+)-6-[4-(2,3-dihydrofuro[3,2-c]pyridin-4-yloxy)-2-methylphenyl]-1,5-dimethylpyrazin-2(1H)-one], the Ki was found to be 706 nM.
On the same count and under the same terms, the result for `Cc1cc(Oc2nccc3c2CCN3)ccc1-c1c(C)ncc(=O)n1C` (single isomer, unassigned) [Example 24, (+)-6-[4-(2,3-dihydro-1H-pyrrolo[3,2-c]pyridin-4-yloxy)-2-methylphenyl]-1,5-dimethylpyrazin-2(1H)-one] reads 201 nM; that for `Cc1cc(Oc2nccc3c2CCN3)ccc1-c1c(C)ncc(=O)n1C` (single isomer, unassigned) [Example 25, (−)-6-[4-(2,3-dihydro-1H-pyrrolo[3,2-c]pyridin-4-yloxy)-2-methylphenyl]-1,5-dimethylpyrazin-2(1H)-one], 75.8 nM.
For the compound `Cc1cc(Oc2nccc3c2CCN3)ccc1-c1c(C)n[nH]c(=O)c1C` (single isomer, unassigned; ent-1) [Example 9, 5-[4-(2,3-Dihydro-1H-pyrrolo[3,2-c]pyridin-4-yloxy)-2-methylphenyl]-4,6-dimethylpyridazin-3(2H)-one, ENT-1], the Ki is 35.6 nM.
On to `Cc1cc(Oc2nccc3c2CCN3)ccc1-c1c(C)n[nH]c(=O)c1C` (single isomer, unassigned; ent-2) [Example 10, 5-[4-(2,3-Dihydro-1H-pyrrolo[3,2-c]pyridin-4-yloxy)-2-methylphenyl]-4,6-dimethylpyridazin-3(2H)-one, ENT-2], for which the Ki came to 50.5 nM.
Still for that read-out and setting: the result for `Cc1cc(Oc2nccc3c2CCO3)ccc1-c1c(C)ncnc1C` [Example 1, 4-[4-(4,6-Dimethylpyrimidin-5-yl)-3-methylphenoxy]-2,3-dihydrofuro[3,2-c]pyridine] reads 76.8 nM; that for `Cc1cc(Oc2nccc3c2CCO3)ccc1-c1c(C)n[nH]c(=O)c1C` [Example 5, 5-[4-(2,3-Dihydrofuro[3,2-c]pyridin-4-yloxy)-2-methylphenyl]-4,6-dimethylpyridazin-3(2H)-one], 14 nM; that for `Cc1cc(Oc2nccc3c2CCO3)ccc1-c1c(C)n[nH]c(=O)c1C` [Example 6, (+)-5-[4-(2,3-Dihydrofuro[3,2-c]pyridin-4-yloxy)-2-methylphenyl]-4,6-dimethylpyridazin-3(2H)-one], 12.6 nM.
Regarding `Cc1cc(Oc2nccc3c2CCO3)ccc1-c1c(C)n[nH]c(=O)c1C` [Example 7, (−)-5-[4-(2,3-Dihydrofuro[3,2-c]pyridin-4-yloxy)-2-methylphenyl]-4,6-dimethylpyridazin-3(2H)-one], the Ki was 12.7 nM.
Same read-out and setting: the same measure for `Cc1cc(Oc2nccc3c2CCN3)ccc1-c1c(C)n[nH]c(=O)c1C` [Example 8, 5-[4-(2,3-Dihydro-1H-pyrrolo[3,2-c]pyridin-4-yloxy)-2-methylphenyl]-4,6-dimethylpyridazin-3(2H)-one]: 8.4 nM.
Regarding `Cc1c(-c2ccc(Oc3nccc4c3CCN4)cc2)n(C)c(=O)[nH]c1=O` [Example 12, 6-[4-(2,3-Dihydro-1H-pyrrolo[3,2-c]pyridin-4-yloxy)phenyl]-1,5-dimethylpyrimidine-2,4(1H,3H)-dione], the Ki came out at 11.1 nM.
Still for that read-out and setting: the result for `Cc1c(-c2ccc(Oc3nccc4c3CCO4)cc2)n(C)c(=O)[nH]c1=O` [Example 13, 6-[4-(2,3-Dihydrofuro[3,2-c]pyridin-4-yloxy)phenyl]-1,5-dimethylpyrimidine-2,4(1H,3H)-dione, trifluoroacetate salt] reads 46.1 nM.
Same read-out and setting: the result for `Cc1cc(Oc2nccc3c2C(O)CO3)ccc1-c1c(C)n[nH]c(=O)c1C` (stereo not drawn) [Example 16, 5-{4-[(3-Hydroxy-2,3-dihydrofuro[3,2-c]pyridin-4-yl)oxy]-2-methylphenyl}-4,6-dimethylpyridazin-3(2H)-one] reads 4.8 nM; that for `Cc1cc(Oc2nccc3c2CCO3)ccc1-c1c(C)ncc2nccn12` [Example 18, 5-[4-(2,3-dihydrofuro[3,2-c]pyridin-4-yloxy)-2-methylphenyl]-6-methylimidazo[1,2-a]pyrazine], 52.1 nM.
`Cc1cc(Oc2ncnc3c2CCN3)ccc1-c1c(C)ncnc1C` [Example 19, 4-[4-(4,6-dimethylpyrimidin-5-yl)-3-methylphenoxy]-6,7-dihydro-5H-pyrrolo[2,3-d]pyrimidine]: the Ki was determined as 156 nM.
Regarding `Cc1cc(Oc2ncnc3c2CCC3)ccc1-c1c(C)ncnc1C` [Example 20, 4-[4-(4,6-dimethylpyrimidin-5-yl)-3-methylphenoxy]-6,7-dihydro-5H-cyclopenta[d]pyrimidine], the Ki came out at 446 nM.
With `Cc1cc(Oc2nccc3c2CCO3)ccc1-c1c(C)ncc(=O)n1C` [Example 21, 6-[4-(2,3-dihydrofuro[3,2-c]pyridin-4-yloxy)-2-methylphenyl]-1,5-dimethylpyrazin-2(1H)-one], the Ki is 82.5 nM.
The same measure, in the same setting: the result for `Cc1n[nH]c(=O)c(C)c1-c1ccc(Oc2nccc3c2CCO3)cc1C#N` [Example 26, 5-(2,3-dihydrofuro[3,2-c]pyridin-4-yloxy)-2-(3,5-dimethyl-6-oxo-1,6-dihydropyridazin-4-yl)benzonitrile] reads 162 nM.
On the same count and under the same terms, the result for `Cc1c(-c2ccc(Oc3ncnc4c3CCN4)cc2)n(C)c(=O)[nH]c1=O` [Example 27, 6-[4-(6,7-dihydro-5H-pyrrolo[2,3-d]pyrimidin-4-yloxy)phenyl]-1,5-dimethylpyrimidine-2,4(1H,3H)-dione] reads 44.4 nM; that for `Cc1c(-c2ccc(Oc3ncnc4c3CCC4)cc2)n(C)c(=O)[nH]c1=O` [Example 28, 6-[4-(6,7-dihydro-5H-cyclopenta[d]pyrimidin-4-yloxy)phenyl]-1,5-dimethylpyrimidine-2,4(1H,3H)-dione], 202 nM.

Still in this assay, the particulars now being: read-out: Human D1 Receptor Binding, Ki (nM); Geometric mean of 2-4 determinations (unless otherwise indicated).
In the case of `Cc1cc(Oc2nccc3c2CCN3)ccc1-c1c(C)ncnc1C` [Example 2, 4-[4-(4,6-Dimethylpyrimidin-5-yl)-3-methylphenoxy]-2,3-dihydro-1H-pyrrolo[3,2-c]pyridine], the Ki came out at 78.1 nM.
Still for that read-out and setting: the result for `Cc1n[nH]c(=O)c(C)c1-c1ccc(Oc2nccc3c2CCN3)cc1` [Example 4, 5-[4-(2,3-Dihydro-1H-pyrrolo[3,2-c]pyridin-4-yloxy)phenyl]-4,6-dimethylpyridazin-3(2H)-one] reads 14 nM; that for `Cc1n[nH]c(=O)c(C)c1-c1ccc(Oc2ncnc3c2CCN3)cc1` [Example 11, 5-[4-(6,7-Dihydro-5H-pyrrolo[2,3-d]pyrimidin-4-yloxy)phenyl]-4,6-dimethylpyridazin-3(2H)-one], 60.4 nM.
Same read-out and setting: the same measure for `Cc1cc(Oc2nccc3c2CCCO3)ccc1-c1c(C)n[nH]c(=O)c1C` [Example 14, 5-[4-(3,4-Dihydro-2H-pyrano[3,2-c]pyridin-5-yloxy)-2-methylphenyl]-4,6-dimethylpyridazin-3(2H)-one]: 70.3 nM; for `Cc1cc(Oc2nccc3c2CCCN3)ccc1-c1c(C)n[nH]c(=O)c1C` [Example 15, 4,6-Dimethyl-5-[2-methyl-4-(1,2,3,4-tetrahydro-1,6-naphthyridin-5-yloxy)phenyl]pyridazin-3(2H)-one]: 18.1 nM; for `Cc1cc(Oc2nccc3c2C(O)CO3)ccc1-c1c(C)ncnc1C` (stereo not drawn) [Example 17, 4-[4-(4,6-Dimethylpyrimidin-5-yl)-3-methylphenoxy]-2,3-dihydrofuro[3,2-c]pyridin-3-ol]: 28.9 nM.

As usually defined, the Ki is a dissociation constant, usually derived from enzyme kinetics or from competition with a known ligand.
